Measurements as given in PubChem BioAssay AID493240 (Broad Institute, 2011).

What follows are molecules tested on SK-MEL-5 viability, ATP luminescence (CellTiter-Glo), 24 h (assay: cytotoxicity in parental SK-MEL-5 melanoma cells – cell-based, CellTiter-Glo, cherry-picked, set 3, orthogonal assay for MITF inhibitor project, dose response (AID 493240)).

Row | Compound | AC50
1 | Cc1ccc(C(O)(c2ccc(C)c(C)c2)C2CN3CCC2CC3)cc1C (configuration not stated) | 17.1 µM
2 | CS(=O)(=O)c1ncc(Cl)c(C(=O)Nc2ccc3ccccc3c2)n1 | 18.3 µM
3 | COc1ccc(-c2cc3c(nn2)-c2ccccc2C3=O)cc1 | 15 µM
4 | CC1CN(C(=O)CCC(=O)NCCCN2CCC(Cc3ccccc3)CC2)c2cc(Cl)ccc2O1 (configuration not stated) | 6.98 µM
5 | COc1ccc(-c2c[n+](CC(=O)OC3CC(C)CCC3C(C)C)c3n2CCC3)cc1 (configuration not stated) | 14.5 µM
6 | CCCCN(CC)CCCNC(=O)c1cc2c(=O)n(CC)c3ccccc3c2s1 | 23.2 µM
7 | CCC(C)(C)c1ccc(OCCCC[n+]2ccccc2)c(C(C)(C)CC)c1 | 15.3 µM
8 | CC1(C)CC(NC(=O)c2ccc(Cl)c(S(=O)(=O)N(Cc3ccccc3)c3ccccc3)c2)CC(C)(C)N1 | 23.3 µM
9 | CCCC(=O)N1CCN(c2ccc(NC(=O)c3ccc([N+](=O)[O-])o3)cc2)CC1 | 24.2 µM
10 | O=C1C(Nc2ccccc2)=C(N2CCCCC2)C(=O)c2ccccc21 | 12.7 µM
11 | CC1CCC(C(C)C)C(OC(=O)Cn2c(-c3ccccc3)[n+](C)c3ccccc32)C1 (configuration not stated) | 5.45 µM
12 | O=C(Nc1ccc(N2CCN(C(=O)c3ccccc3)CC2)cc1)c1ccc([N+](=O)[O-])o1 | 28.3 µM
13 | COc1ccc(C(=O)/C=C/C(=O)N(CC(=O)NC2CCCCC2)Cc2ccc(F)cc2)c(O)c1 | 12.8 µM
14 | O=C(Nc1ccccn1)c1ccc(Br)s1 | 2.08 µM
15 | CC1=C(CC(=O)c2ccccc2)C(=O)c2ccccc2C1=O | 7.67 µM
16 | CCc1cc[n+](C2=C([O-])c3ccccc3C(=O)/C2=N\S(=O)(=O)c2cccs2)cc1 | 5.72 µM
17 | O=C(Cn1ncc(Cl)c(Cl)c1=O)NC1CCCCC1 | 20.5 µM
18 | Cc1c(N=C2C=CC(=O)c3ccccc32)c(=O)n(-c2ccccc2)n1C | 30.9 µM
19 | COc1ccccc1NC(=O)c1nc(S(=O)(=O)Cc2ccccc2)ncc1Cl | 29.4 µM
20 | CCCCN1CCc2c1nc1ccc(Br)cc1c2N | 25.6 µM
21 | O=C(COc1ccccc1)N/N=C/c1ccc([N+](=O)[O-])o1 | 22.9 µM
22 | O=C(/C=C/c1ccc(Cl)c([N+](=O)[O-])c1)c1ccc(O)cc1 | 27.3 µM
23 | CC(C)(C)c1ccc(-c2cn(-c3ccc(Br)cc3)c3[n+]2CCCS3)cc1 | 11.4 µM
24 | CCOc1cc(/C=N/N=C(N)N)ccc1OCc1ccc(Cl)cc1 | 19.2 µM
25 | Cc1ccc(-c2cn(-c3ccc(SC(F)F)cc3)c3[n+]2CCC3)cc1 | 28 µM
26 | O=[N+]([O-])c1cccc2c(N3CCCC3)ccnc12 | 15.3 µM

Row | Compound | AC50
27 | CCOC(=O)c1ccc(NC(=O)c2ccc(C)c(S(=O)(=O)N3CCOCC3)c2)cc1 | 17.5 µM
28 | CCN1/C(=C/c2cc[n+](C)cc2)C=Cc2cc(C)ccc21 | 25.7 µM
29 | N=c1n(CC(=O)c2ccc(Br)s2)c2ccccc2n1Cc1ccccc1 | 20 µM
30 | O=C(CCl)N1c2ccccc2SCC1c1ccccc1 (configuration not stated) | 21.3 µM
31 | CCOc1ccc(-n2c(-c3ccc(OC)cc3)c[n+]3c2CCCCC3)cc1 | 19.6 µM
32 | Cc1cc(C)c2sc(N(CCCN(C)C)C(=O)COc3ccc(Cl)cc3)nc2c1 | 24.7 µM
33 | COC1=C(c2ccccc2)C(=O)c2ccccc2C1=O | 9.91 µM
34 | N#C/C(=C(/O)c1ccc([N+](=O)[O-])o1)c1nc2ccccc2[nH]1 | 16.3 µM
35 | CCN(Cc1ccccc1)c1ccc(/C=N/N=C(N)N)cc1 | 17.9 µM
36 | O=C(Nc1ccc(Cl)c(S(=O)(=O)N2CCOCC2)c1)c1ccc(OCC2CCCO2)cc1 (configuration not stated) | 9.27 µM
37 | CC1CCC(C(C)C)C(OC(=O)Cn2c(-c3ccc(Cl)cc3)[n+](C)c3ccccc32)C1 (configuration not stated) | 10.4 µM
38 | O=C1Nc2cc(C(=O)NCCN3CCCCCC3)ccc2S/C1=C\c1ccccc1 | 19.2 µM
39 | CC(=O)Nc1ccc(Nc2c3ccccc3nc3ccccc23)cc1 | 16.6 µM
40 | Cc1ccc(Cn2c(=N)n(CC(=O)c3ccc([N+](=O)[O-])cc3)c3ccccc32)cc1 | 21.9 µM
41 | COc1ccc(-n2cc(-c3ccc(C)cc3)[n+]3c2SCC3)cc1 | 19.9 µM
42 | Cc1ccc(-n2cc(CNCCCn3ccnc3C)c(-c3ccc(F)cc3)n2)cc1 | 17.6 µM
43 | O=C(Nc1cccc(Cl)c1)Nc1cc(S(=O)(=O)N2CCCCC2)ccc1Cl | 22.9 µM
44 | CCn1c(/C=C/N(C)c2ccccc2)[n+](CC)c2ccc(Cl)cc21 | 13.9 µM
45 | CS(=O)(=O)c1ccc(S(=O)CC(=O)OCc2ccccc2)c([N+](=O)[O-])c1 (configuration not stated) | 28.3 µM
46 | COC(=O)c1c(NC(=O)c2nc3ccccc3s2)sc2c1CC(C)(C)NC2(C)C | 22.1 µM
47 | COc1ccc(S(=O)(=O)N(C(C)=O)c2ccc(OC(C)=O)c3ccccc23)cc1[N+](=O)[O-] | 17 µM
48 | Cc1ccc(NC(=O)CCl)cc1S(=O)(=O)N1CCCCCC1 | 28.3 µM
49 | Cc1cc(C)n(-c2ccc(C(=O)Nc3ccc(C)c(S(=O)(=O)N4CCOCC4)c3)cc2)n1 | 28.1 µM
50 | COc1cc(NC(=O)c2[nH]cnc2C(N)=O)cc(C(=O)Nc2cccc(C(F)(F)F)c2)c1 | 18.2 µM
51 | COc1ccc2nc(C)cc(NCc3cccc(C(F)(F)F)c3)c2c1 | 27.9 µM
52 | CCN1CCN(C2=C(NS(=O)(=O)c3ccc(C)cc3)C(=O)c3ccccc3C2=O)CC1 | 21.9 µM
